Laboratory results from patent US4123552A, “Compositions for preserving crops and animal feedstuffs” (Chevron Research Company, priority 1975, dated 1978).
≈ marks a conversion by molar mass, not a printed value.

Legend:
high moisture corn = test: Preservation of high moisture corn in ventilated cans (time until temperature exceeds room temperature); details: for Weeks Effective: corn 25 percent moisture, 70-72 F; for effectiveness in preservation of high moisture corn (in words): from Table II
Protocol: High moisture corn (25 percent moisture) was treated with various methylene and polyoxymethylene esters of propionic or acetic acid of various dosages. The esters were applied to the corn in a mixer for one minute at 32 RPM. Three replicate two gallon ventilated cans were filled with the treated corn. The cans were then held at a temperature of 70°-72° F. Temperature readings were taken semi-weekly by means of thermocouples in the center of each can. When the temperature exceeded constant room temperature for at least an 8-hour period the treatment was considered broken.

[1] = Solubility of insecticides in methylene bispropionate; format: physicochemical; details: solvent methylene bispropionate
Protocol: Methylene bispropionate was tested as a solvent for various insecticides. […] O,S-dimethylN-acetyl phosphoramidothioate was soluble in methylene bispropionate to the extent of 5 percent by weight. Chlordane was soluble in methylene bispropionate to the extent of at least 75 percent by weight.

All Species = test: Control of seed- and soil-borne pathogens during storage of corn seeds (Table IV), all species; format: cell-based, Rhizopus, Penicillium, Fusarium; details: relative to untreated check
Protocol: A variety of bis-esters was tested for the control of seed- and soil-borne pathogens during storage of corn seeds (Zea mays) by the following procedure.
(§1) A small amount of acetone was added to the bis-ester to make specific volume, plus a small portion of emulsifier making it into a slurry. This preparation was diluted with water to the desired concentration. Solution was then evenly distributed on the wall of a glass jar. High moisture feedcorn with natural infection was stored frozen after harvest until used for this test. The corn seeds were rolled in the jar until they were coated and the solution was completely absorbed on them.
(§2) Following the treatment, the corn seeds were plated on Potato Dextrose Agar plates. For comparison, untreated corn seeds were also plated. Propionic acid was also tested for comparison.
The percentage control of all species was based on the total sum average of mycelial growth in millimeters of all species in the treated seeds relative to the untreated check. The fast growing Rhizopus was evaluated 7 days after treatment, the other fungi after 14 days.

Rhizopus sp. = test: Concentration for 90% control of pathogen on corn seeds (Table V), Rhizopus sp.; format: cell-based; details: 5 days after treatment
Protocol: as §1, §2
(§3) A variety of bis-esters was tested for the control of seed- and soil-borne pathogens during the storage of corn seeds (Zea mays) by the procedure of Example 11. For comparison, propionic acid was also tested.
(§4) Control of each pathogen was determined by mycelial growth in millimeters in the treated seeds relative to untreated seeds. Mycelial growth of Rhizopus species and Fusarium species was evaluated 5 days after treatment. Mycelial growth in Aspergillus niger was evaluated 14 days after treatment.
(§5) The bis-ester tested and the concentration of active ingredient in ounces per 100 lbs. of corn seeds for 90 percent control of each pathogen species are tabulated in Table V.

Fusarium sp. = test: Concentration for 90% control of pathogen on corn seeds (Table V), Fusarium sp.; format: cell-based; details: 5 days after treatment
Protocol: as §1, §2, §3, §4, §5

Aspergillus niger [2] = test: Concentration for 90% control of pathogen on corn seeds (Table V), Aspergillus niger; format: cell-based; details: 14 days after treatment; for Conc. for 90% Control, Aspergillus niger: corn seeds
Protocol: as §1, §2, §3, §4, §5

fungal growth = test: Visual fungal growth rating on treated crops in ventilated cans; set-up: key: 1 = no growth, 10 = heavy uniform growth; details: 1-10 basis
Protocol: Methylene bispropionate was applied to a variety of crops at various dosages by spraying or in a mixer. Two ventilated cans were filled with each treated crop. The cans were then maintained at 70° F. ±5° F. Each can was periodically visually observed for fungal growth and the observations were translated into a growth rating on a 1-10 basis; 1 indicating no growth and 10 indicating heavy uniform growth. For comparison, two samples of each untreated crop were also tested. The crops employed, the percent weight methylene bispropionate (MBP) based on weight crop, and the fungal rating 2, 7-8 and 28-29 days after treatment are tabulated in Table III.

[3] = Acute oral toxicity in white rats; details: rat, in vivo
Text: Methylene bispropionate was subjected to acute oral toxicity studies using white rats.

Candida albicans = test: Antimicrobial activity of MBP on nutrient agar, Candida albicans; format: cell-based; details: read-out: Germistatic Concentration of MBP
Protocol: (§6) Microbiological tests were conducted to determine the antimicrobial activity of methylene bispropionate (MBP). The minimum concentration of MBP, capable of inhibiting the growth of five species of bacteria, two species of mold and one species of yeast was determined. Petri plates containing nutrient agar and various concentrations of MBP were inoculated with each of the test species. The identification of these organisms and the effective concentration of MBP inhibiting growth are shown below: […]

Staphylococcus aureus = test: Antimicrobial activity of MBP on nutrient agar, Staphylococcus aureus; format: cell-based; details: read-out: Germistatic Concentration of MBP
Protocol: as §6

Escherichia coli = test: Antimicrobial activity of MBP on nutrient agar, Escherichia coli; format: cell-based; details: read-out: Germistatic Concentration of MBP
Protocol: as §6

Streptococcus pyogenes = test: Antimicrobial activity of MBP on nutrient agar, Streptococcus pyogenes; format: cell-based; details: read-out: Germistatic Concentration of MBP
Protocol: as §6

Aspergillus niger [4] = test: Antimicrobial activity of MBP on nutrient agar, Aspergillus niger; format: cell-based; details: read-out: Germistatic Concentration of MBP
Protocol: as §6

[5] = test system: Trichophyton interdigitale; test: Antimicrobial activity of MBP on nutrient agar, Trichophyton interdigitale; format: cell-based; details: read-out: Germistatic Concentration of MBP
Protocol: as §6

Pseudomonas aeruginosa = test: Antimicrobial activity of MBP on nutrient agar, Pseudomonas aeruginosa; format: cell-based; details: read-out: Germistatic Concentration of MBP
Protocol: as §6

Bacillus subtilis = test: Antimicrobial activity of MBP on nutrient agar, Bacillus subtilis; format: cell-based; details: read-out: Germistatic Concentration of MBP
Protocol: as §6

For CCC(=O)OCOCOC(=O)CC [Oxybismethylene Propionate, Oxybismethylene Bispropionate], the “Weeks Effective” value (high moisture corn; 2 Oz/Bu) was 6 Weeks, the “Weeks Effective” value (high moisture corn; 3 Oz/Bu) was 12 Weeks and the “Weeks Effective” value (high moisture corn; 4 Oz/Bu) was > 12 Weeks. The “Weeks Effective” value (high moisture corn; 5 Oz/Bu) was > 12 Weeks and the “effectiveness in preservation of high moisture corn (in words)” value (high moisture corn) was “remarkably superior to propionic acid in the preservation of high moisture corn”.

With CCOP(=S)(OCC)Oc1ccc([N+](=O)[O-])cc1 [parathion, O,O-diethyl-O-p-nitrophenyl phosphorothioate] the “miscibility with methylene bispropionate (in words)” value [1] was “miscible with methylene bispropionate in all proportions”.

For CCCC(=O)OCOCOC(=O)CCC [Oxybismethylene Bisbutyrate], the “% Control All Species” value (All Species; 1.0 Oz./100 Lbs.) was 100%, the “% Control All Species” value (All Species; 2.5 Oz./100 Lbs.) was 100% and the “% Control All Species” value (All Species; 6.4 Oz./100 Lbs.) was 100%. For the same compound, the “% Control All Species” value (All Species; 16 Oz./100 Lbs.) was 100%, the “Conc. for 90% Control, Rhizopus sp.” value (Rhizopus sp.) was 1.1 oz./100 lbs and the “Conc. for 90% Control, Fusarium sp.” value (Fusarium sp.) was 1.0 oz./100 lbs. The “Conc. for 90% Control, Aspergillus niger” value (Aspergillus niger [2]) was 0.57 oz./100 lbs.

For CC(=O)OC(C)OC(C)=O [Ethylidene Bisacetate], the “% Control All Species” value (All Species; 1.0 Oz./100 Lbs.) was 60%, the “% Control All Species” value (All Species; 2.5 Oz./100 Lbs.) was 87% and the “% Control All Species” value (All Species; 6.4 Oz./100 Lbs.) was 93%. The “% Control All Species” value (All Species; 16 Oz./100 Lbs.) was 100%.

For ClC1=C(Cl)C2(Cl)C3C(Cl)C(Cl)CC3C1(Cl)C2(Cl)Cl (centres unmarked) [Chlordane], the “solubility in methylene bispropionate” value [1] was “at least 75 percent by weight”.

With CC(=O)OCOC(C)=O [Methylene Bisacetate] the “Weeks Effective” value (high moisture corn; 3 Oz/Bu) was 6 Weeks and the “Weeks Effective” value (high moisture corn; 6 Oz/Bu) was > 12 Weeks.

With CCC(=O)OC(OC(=O)CC)C(Cl)(Cl)Cl [2,2,2-Trichloroethylidene Bispropionate] the “% Control All Species” value (All Species; 1.0 Oz./100 Lbs.) was 8%, the “% Control All Species” value (All Species; 2.5 Oz./100 Lbs.) was 54% and the “% Control All Species” value (All Species; 6.4 Oz./100 Lbs.) was 74%. For the same compound, the “% Control All Species” value (All Species; 18 Oz./100 Lbs.) was 89%.

For CCC(=O)OCOC(=O)CC [Methylene Bispropionate], the “Weeks Effective” value (high moisture corn; 3 Oz/Bu) was > 12 Weeks, the “Weeks Effective” value (high moisture corn; 6 Oz/Bu) was > 12 Weeks and the “effectiveness in preservation of high moisture corn (in words)” value (high moisture corn) was “remarkably superior to propionic acid in the preservation of high moisture corn”. The “Fungal Rating” value (fungal growth; Hay (4" seedlings), […] Wt MBP, 7-8 days) was 0, the “Fungal Rating” value (fungal growth; Hay (4" seedlings), […] Wt MBP, 28-29 days) was 4 and the “Fungal Rating” value (fungal growth; Hay (4" seedlings), […] Wt MBP, 2 days) was 0. The “Fungal Rating” value (fungal growth; Sorghum (33% H2 O), 0.51 % Wt MBP, 7-8 days) was 0, the “Fungal Rating” value (fungal growth; Sorghum (33% H2 O), 0.51 % Wt MBP, 28-29 days) was 0 and the “Fungal Rating” value (fungal growth; Sorghum (33% H2 O), 0.51 % Wt MBP, 2 days) was 0. For the same compound, the “Fungal Rating” value (fungal growth; Soybeans (26% H2 O), 0.51 % Wt MBP, 7-8 days) was 0, the “Fungal Rating” value (fungal growth; Soybeans (26% H2 O), 0.51 % Wt MBP, 28-29 days) was 0 and the “Fungal Rating” value (fungal growth; Soybeans (26% H2 O), 0.51 % Wt MBP, 2 days) was 0. For the same compound, the “Fungal Rating” value (fungal growth; Wheat (26% H2 O), 0.6 % Wt MBP, 7-8 days) was 0, the “Fungal Rating” value (fungal growth; Wheat (26% H2 O), 0.6 % Wt MBP, 28-29 days) was 0 and the “Fungal Rating” value (fungal growth; Wheat (26% H2 O), 0.6 % Wt MBP, 2 days) was 0. The “Fungal Rating” value (fungal growth; Wood Chips (freshly cut), 1.4 % Wt MBP, 7-8 days) was 0, the “Fungal Rating” value (fungal growth; Wood Chips (freshly cut), 1.4 % Wt MBP, 28-29 days) was 0 and the “Fungal Rating” value (fungal growth; Wood Chips (freshly cut), 1.4 % Wt MBP, 2 days) was 0. The “% Control All Species” value (All Species; 1.0 Oz./100 Lbs.) was 97%, the “% Control All Species” value (All Species; 2.5 Oz./100 Lbs.) was 100% and the “% Control All Species” value (All Species; 6.4 Oz./100 Lbs.) was 100%. For the same compound, the “% Control All Species” value (All Species; 16 Oz./100 Lbs.) was 100%, the “Conc. for 90% Control, Rhizopus sp.” value (Rhizopus sp.) was 0.85 oz./100 lbs and the “Conc. for 90% Control, Fusarium sp.” value (Fusarium sp.) was 0.5 oz./100 lbs. For the same compound, the inhibition of growth at 0.16 oz/100 lb (Aspergillus niger [2]; Aspergillus niger, 336 h, 0.16 oz./100 lbs.) was 99%, the “Conc. for 90% Control, Aspergillus niger” value (Aspergillus niger [2]) was 0.16 oz./100 lbs and the LD50 [3] was 2800 mg/kg. The MIC (Candida albicans) was 1000 µg/mL (≈ 6.24 mM), the MIC (Staphylococcus aureus) was 1000 µg/mL (≈ 6.24 mM) and the MIC (Escherichia coli) was 6000 µg/mL (≈ 37.5 mM). For the same compound, the MIC (Streptococcus pyogenes) was 700 µg/mL (≈ 4.37 mM), the MIC (Aspergillus niger [4]) was 800 µg/mL (≈ 4.99 mM) and the MIC [5] was 800 µg/mL (≈ 4.99 mM). It also gave an MIC (Pseudomonas aeruginosa) of 7000 µg/mL (≈ 43.7 mM) and an MIC (Bacillus subtilis) of 8000 µg/mL (≈ 49.9 mM).
